The text below walks through data of patent US6911524B1 (priority 1999, dated 2005).

Structures are written as SMILES. Bridge positions count the residues as written; N and C are the ends. Peptide text beside a SMILES is read from it.

Common to all, as to type: cell-based
Assay [1] has as its system Perkinsus marinus. As to the kind of experiment: Antiprotozoan activity, parasite viability. The note with it: Perkinsus marinus in seawater, 1 hour at room temperature, viability by acridine orange / ethidium bromide staining. The protocol: The oyster-parasite protozoan Perkinsus marinus is cultured in DMEM medium (GIBCO), according to the protocol described by GAUTHIER and VASTA [J. Invertebr. Pathol., 66, 156-168, (1995)].
10 μM of purified peptide are added to 4×10^4 P. marinus, in seawater (final volume 20 μl) . The mixture is incubated for 1 hour at room temperature. The viability of the parasites is estimated by staining with acridine orange and with ethidium bromide, as described by MORVAN et al. [J. Invertebr. Pathol., 69, 177-82 (1997)]. The maximum viability is evaluated, as a positive control, in samples to which the peptide has not been added.

In assay [2] the test system is Fusarium oxysporum. Put plainly: Antifungal activity, growth inhibition in liquid phase (MIC). To be noted: summary of table 1. The protocol: The antifungal activity was determined by calculating the MIC (minimum inhibitory concentration) in a test of inhibition of Fusarium oxysporum growth in liquid phase, according to the protocol described by FELHBAUM et al. [J. Biol. Chem., 269: 33159-63, (1994)].
A series of successive doubling dilutions of the peptides is prepared as indicated above for determining the antibacterial activity.
80 μl of spores suspended (final concentration 10^4 spores/ml) in Potato Dextrose Broth medium (DIFCO) are added to 10 μl of peptide solution in sterile 96-well polypropylene microtitration plates. The final volume is adjusted to 100 μl by adding water. The growth inhibition is determined after incubation for 24 hours at 25° C. in the dark, by observation under a microscope and measurement of the increase in the OD600. The value of the MIC corresponds to a range (a-b) of peptide concentrations, in which (a) represents the highest concentration at which growth is observed, and (b) represents the lowest concentration which induces 100% growth inhibition.

Assay [3] deals with Escherichia coli D31. As to the kind of experiment: Antibacterial assay, MBC determination. To be noted: summary of table 1. As to the method:
(§1) The minimum […] concentration (MBC) of the peptides was determined according to the protocol described by HANCOCK et al.
(§2) A series of successive doubling dilutions of the peptides, in an aqueous solution containing 0.01% of acetic acid and 0.2% of bovine serum albumin (BSA), is prepared.
(§3) 10 μl aliquots of each dilution are incubated in sterile 96-well polypropylene microtitration plates, in the presence of 100 μl of bacterial suspension at a starting optical density of A600=0.001, in MUELLER HINTON BROTH liquid medium. The incubation is carried out for 18 h at 37° C. with stirring, except in the case of the marine bacteria, for which the incubation is carried out 25° C. The MBC is determined by plating out, onto solid MUELLER HINTON AGAR medium, the content of the wells corresponding to the first 3 dilutions for which no bacterial growth is observed, and incubating at 37° C. for 18 hours. The lowest concentration of peptide which prevents any residual formation of colonies corresponds to the MBC.

Assay [4] concerns Micrococcus luteus. As to the kind of experiment: Antibacterial assay, MBC determination. The note with it: summary of table 1. As to the method:
as §1, §2, §3

On to `CC(C)C[C@@H]1NC(=O)[C@H](CCCCN)NC(=O)CNC(=O)[C@H](CCCNC(=N)N)NC(=O)[C@H](Cc2c[nH]cn2)NC(=O)[C@H](CC(C)C)NC(=O)[C@H](CC(N)=O)NC(=O)[C@H](CCCNC(=N)N)NC(=O)[C@@H]2CSSC[C@H](NC(=O)[C@@H](NC(=O)[C@H](Cc3c[nH]cn3)NC(=O)[C@@H]3CCCN3C(=O)[C@@H](N)Cc3c[nH]cn3)C(C)C)C(=O)N[C@@H]([C@@H](C)O)C(=O)N[C@@H](CO)C(=O)N[C@@H](Cc3ccc(O)cc3)C(=O)N[C@@H](Cc3ccc(O)cc3)C(=O)N[C@H]3CSSC[C@H](NC1=O)C(=O)N[C@@H](Cc1ccccc1)C(=O)N[C@H]1CSSC[C@H](NC(=O)[C@H](Cc4ccccc4)NC(=O)[C@H](CCCCN)NC(=O)[C@H](CO)NC3=O)C(=O)NCC(=O)N[C@@H]([C@@H](C)O)C(=O)N[C@@H](C)C(=O)NCC(=O)N[C@@H](CSSC[C@@H](C(=O)N[C@@H](CO)C(=O)N[C@@H](CCCNC(=N)N)C(=O)O)NC(=O)[C@H](Cc3c[nH]cn3)NC(=O)[C@H](CC(C)C)NC1=O)C(=O)N[C@@H]([C@@H](C)O)C(=O)N[C@@H](CCCNC(=N)N)C(=O)N[C@@H](Cc1ccc(O)cc1)C(=O)NCC(=O)N2` [Myticin b] (H-HPHVCTSYYCSKFCGTAGCTRYGCRNLHRGKLCFCLHCSR-OH; disulfide 5-24, 10-33, 14-35, 19-38; N-terminus and C-terminus assumed), for which the “Antiprotozoan activity (biological activity expressed in μM)” value in assay [1] was over 20 μM. The “Activity on Fusarium oxysporum compared (in words)” value in assay [2] is recorded as “more active than the Myticin a peptide”. Further, the “Activity on Escherichia coli compared (in words)” value in assay [3] is on record as “more active than the Myticin a peptide”. Further, the “Activity on Micrococcus luteus (in words)” value in assay [4] was “more active than the Myticin a peptide”.

As for `CSCC[C@@H]1NC(=O)[C@H](CCCCN)NC(=O)CNC(=O)[C@@H]2CCCN2C(=O)[C@H](Cc2c[nH]cn2)NC(=O)[C@H](CC(C)C)NC(=O)[C@H](C(C)C)NC(=O)[C@H](CCCNC(=N)N)NC(=O)[C@@H]2CSSC[C@H](NC(=O)[C@H](C)NC(=O)[C@H](Cc3c[nH]cn3)NC(=O)[C@H](CO)NC(=O)[C@@H](N)Cc3c[nH]cn3)C(=O)N[C@@H]([C@@H](C)O)C(=O)N[C@@H](CO)C(=O)N[C@@H](Cc3ccc(O)cc3)C(=O)N[C@@H](Cc3c[nH]c4ccccc34)C(=O)N[C@H]3CSSC[C@H](NC1=O)C(=O)N[C@@H](C)C(=O)N[C@H]1CSSC[C@H](NC(=O)[C@H](Cc4ccccc4)NC(=O)[C@H](CCCCN)NC(=O)CNC3=O)C(=O)NCC(=O)N[C@@H]([C@@H](C)O)C(=O)N[C@@H](C)C(=O)N[C@@H](CO)C(=O)N[C@@H](CSSC[C@@H](C(=O)N[C@@H](CO)C(=O)N[C@@H](CCCNC(=N)N)C(=O)O)NC(=O)[C@H](Cc3c[nH]cn3)NC(=O)[C@H](C(C)C)NC1=O)C(=O)N[C@@H]([C@@H](C)O)C(=O)N[C@@H](Cc1c[nH]cn1)C(=O)N[C@@H](Cc1ccc(O)cc1)C(=O)N[C@@H](CC(C)C)C(=O)N2` [Myticin a] (H-HSHACTSYWCGKFCGTASCTHYLCRVLHPGKMCACVHCSR-OH; disulfide 5-24, 10-33, 14-35, 19-38; N-terminus and C-terminus assumed), in assay [1], the “Antiprotozoan activity (biological activity expressed in μM)” value is given as over 20 μM.
